Measurements: patent US4994439A, “Transmembrane formulations for drug administration” (California Biotechnology Inc., priority 1989, dated 1991)

Experiments:
[1] = Quasi-elastic light-scattering of micelles; format: physicochemical
Description: Solulan C-24 forms micelles with a radius of 75 angstroms; STDHF forms micelles with a radius of 17 angstroms, and the mixture (1:1 w/w) forms micelles with a radius of 40 angstroms.

[2] = Critical micellar concentration by rhodamine 6G method; format: physicochemical; conditions: for CMC expressed on a molar basis: for the mixture: total surfactant; for CMC (as percent w/v): rhodamine 6G method
Protocol: The CMC is not a single value, but a range of concentrations. Because the range is relatively narrow, a single concentration within this transition zone is defined as the CMC. The CMC for each individual molecule and for each mixture can be determined experimentally in variety of ways; that illustrated below is the rhodamine 6G method of Carey, M.C., et al J Colloid Interface Sci (1969) 31:382-396. In this method, a low concentration of rhodamine 6G is added as a probe in a series of dispersions or solutions of the material to be tested. Where the solute concentration is below the CMC the probe molecule has a lambdamax at 523 nm; above the CMC, the probe binds to the micelle, which causes the lambdamax to increase to approximately 532 nm. By plotting the wavelength of the maximum absorption of the rhodamine 6G probe as a function of concentration of test materials, two lines of differing slopes are obtained which intersect at the CMC. The value of the intersection is then taken as the value of the CMC for the particular dispersion.
When this procedure is conducted for solutions of STDHF, Solulan C-24, or a 1:1 mixture of these materials, the CMC values (as percent w/v) obtained are 0.14% for STDHF; 0.028% for Solulan C-24; and 0.012% for the mixture of the two--i.e., 0.006% STDHF plus 0.006% Solulan C-24. Thus, for the mixture of STDHF and Solulan C-24, the CMC for the mixture is lower than that for either component alone. These values establish minimum concentration levels needed for the invention composition, and also establish that the two components form mixed micelles. If there were two separate populations of micelles, the CMC as measured by the above-described method would be equal to that of Solulan C-24. The existence of mixed micelles can be verified with other data as described below.

[3] = Transport of insulin across rat nasal tissue (plasma insulin, delivery via the nares); format: in vivo; conditions: 5IU/kg insulin intranasal, FIG. 5
Protocol: Efficacy in transport of insulin and of human growth hormone across rat nasal tissue was evaluated. Male Sprague-Dawley rats (Simonsen, Gilroy, CA, 240-300 gm) were anesthetized by subcutaneous injection of Acepromazine (3 mg/kg) followed 10 minutes later by intraperitoneal injections of inactin (100 mg/kg) for experiments shown in FIGS. 4-6 or by intraperitoneal (IP) injection of sodium pentobarbital (65 mg/kg), with additional doses given intravenously as necessary for experiments shown in FIGS. 7-8. A trachea tube was inserted to assist breathing.
In FIGS. 4-6, insulin or hGH was delivered directly via the nares; no esophageal cannula was inserted; the test solution (50 ul) was delivered 1 cm into the nasal cavity using PE 10 tubing attached to a Hamilton syringe.
In all cases, blood samples (0.5 ml) were drawn from a catheter in the right jugular vein and diluted with heparinized saline. Plasma (300-400 ul) was separated and stored at 4° C. for less than 48 hours prior to analysis of growth hormone using an immunoradiometric assay (Tandem R, Hybritech, Inc, San Diego, Calif.) or of insulin using a radioimmunoassay (Micromedic, ICN Micromedic Systems, Horsham, Pa.). […] Estimations of area under the curve (AUC) of plots of plasma insulin or hGH concentration versus time were calculated using the trapezoidal rule.

red blood cells = assay: Red blood cell (RBC) lysis as a measure of toxicity; format: cell-based; conditions: FIG. 3
Protocol: Consistent results were obtained when red blood cell (RBC) lysis was evaluated as a measure of toxicity and SGDHF was used as the fusidate component. […] Thus, the addition of the detergent appears to protect against the lytic effect of the fusidate.

Compound | micelle radius [1] [angstroms] | CMC expressed on a molar basis [2] [mM] | CMC (as percent w/v) [2] [%] | time course of plasma insulin level [3] | RBC lysis (red blood cells; concentration range of 0-0.3%) | RBC lysis (red blood cells; 0.3% concentration) [%]
CC(=O)O[C@H]1C[C@@]2(C)[C@@H](C[C@@H](O)[C@H]3[C@@]4(C)CC[C@@H](O)[C@@H](C)[C@@H]4CC[C@@]32C)/C1=C(\CCCC(C)C)C(=O)NCCS(=O)(=O)[O-].[Na+] [STDHF, sodium tauro-24,25-dihydrofusidate] | 17 | 2.0 | 0.14 | lower levels | – | –
polyoxyethylene-24-cholesterol ether [Solulan C-24] | 75 | 0.19 | 0.028 | lower levels | low values of RBC lysis | –
sodium glyco-24,25-dihydrofusidate [SGDHF] | – | – | – | – | – | 100
